Experimental data published in patent US11986532B2 (Arvinas Operations, Inc., priority 2021, dated 2024).
Where two headings read alike, the source gives them in different places.

Molecular target: T1, BCL6 (Homo sapiens, UniProt P41182)
T1 construct: endogenous in cells; host or cells: T47D breast cancer epithelial cells
Test: Immunofluorescence protocol for high content imaging of BCL6 (degradation) in T47D cells, 3 days compound treatment
Assay type: cell-based
Details: for Dmax: read-out: Mean Dmax (%)** category; for DC50: read-out: Mean DC50 (nM)* category
Summary of the method: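 Remaining BCL6 in breast cancer T47D cells was measured by high-content immunofluorescence imaging after 3 days of treatment with serially diluted compound (top 0.1 or 1 μM). Nuclei were stained with Hoechst and cells with CellMask.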

[1] = T47D cells, 3 days compound treatment

DC50 [1] [nM] | Dmax [1] [%] | SMILES | Dmax (T47D) [%] | DC50 [nM]
≥ 100 | ≥ 70 | CNC(=O)COc1cc2cc(Nc3nc(N4CCC(CN5CCC6(CC5)CN(c5ccc7c(c5)C(=O)N(C5CCC(=O)NC5=O)C7=O)C6=O)CC4)ncc3Cl)ccc2n(C(C)C)c1=O (centres unmarked) [Compound 65, 2-{[6-({5-chloro-2-[4-({2-[2-(2,6-dioxopiperidin-3-yl)-1,3-dioxo-2,3-dihydro-1H-isoindol-5-yl]-1-oxo-2,7-diazaspiro[3.5]nonan-7-yl}methyl)piperidin-1-yl]pyrimidin-4-yl}amino)-2-oxo-1-(propan-2-yl)-1,2-dihydroquinolin-3-yl]oxy}-N-methylacetamide] | – | –
< 10 | 50 to 70 | CNC(=O)COc1cc2cc(Nc3nc(N4CCN(CC5(F)CCN(c6ccc7c(c6)CN(C6CCC(=O)NC6=O)C7=O)CC5)CC4)ncc3Cl)ccc2n(C(C)C)c1=O (centres unmarked) [Compound 113, 2-{[6-({5-chloro-2-[4-({1-[2-(2,6-dioxopiperidin-3-yl)-1-oxo-3H-isoindol-5-yl]-4-fluoropiperidin-4-yl}methyl)piperazin-1-yl]pyrimidin-4-yl}amino)-1-isopropyl-2-oxoquinolin-3-yl]oxy}-N-methylacetamide] | – | –
< 10 | 50 to 70 | CNC(=O)COc1cc2cc(Nc3nc(N4CCC(F)(CN5CC6(CCN(c7ccc8c(c7)CN(C7CCC(=O)NC7=O)C8=O)CC6)C5)CC4)ncc3Cl)ccc2n(C(C)C)c1=O (centres unmarked) [Compound 122, 2-{[6-({5-chloro-2-[4-({7-[2-(2,6-dioxopiperidin-3-yl)-1-oxo-2,3-dihydro-1H-isoindol-5-yl]-2,7-diazaspiro[3.5]nonan-2-yl}methyl)-4-fluoropiperidin-1-yl]pyrimidin-4-yl}amino)-2-oxo-1-(propan-2-yl)-1,2-dihydroquinolin-3-yl]oxy}-N-methylacetamide] | – | –

The next lines start with the molecule.

SMILES | DC50 [1] [nM] | Dmax [1] [%] | Dmax (T47D) [%] | DC50 [nM]
CNC(=O)COc1cc2cc(Nc3nc(N4CCC(O[C@H]5C[C@H](N6CC7(CCN7c7cccc8c7CN(C7CCC(=O)NC7=O)C8=O)C6)C5)CC4)ncc3Cl)ccc2n(C(C)C)c1=O (some centres unmarked) [Compound 317, 2-({6-[(5-chloro-2-{4-[(1r,3r)-3-{1-[2-(2,6-dioxopiperidin-3-yl)-1-oxo-2,3-dihydro-1H-isoindol-4-yl]-1,6-diazaspiro[3.3]heptan-6-yl}cyclobutoxy]piperidin-1-yl}pyrimidin-4-yl)amino]-2-oxo-1-(propan-2-yl)-1,2-dihydroquinolin-3-yl}oxy)-N-methylacetamide] | – | – | 50 to 70 | < 10
CNC(=O)COc1cc2cc(Nc3nc(N4CCC(F)(CN5CC(N6CCC(c7ccc8c(c7F)CN(C7CCC(=O)NC7=O)C8=O)CC6)C5)CC4)ncc3Cl)ccc2n(C(C)C)c1=O (centres unmarked) [Compound 285, 2-({6-[(5-chloro-2-{4-[(3-{4-[2-(2,6-dioxopiperidin-3-yl)-4-fluoro-1-oxo-2,3-dihydro-1H-isoindol-5-yl]piperidin-1-yl}azetidin-1-yl)methyl]-4-fluoropiperidin-1-yl}pyrimidin-4-yl)amino]-2-oxo-1-(propan-2-yl)-1,2-dihydroquinolin-3-yl}oxy)-N-methylacetamide] | – | – | ≥ 70 | < 10
CNC(=O)COc1cc2cc(Nc3nc(N4CCC(OC5CCC6(CC5)CN(c5ccc7c(c5)CN(C5CCC(=O)NC5=O)C7=O)C6)CC4)ncc3Cl)ccc2n(C(C)C)c1=O (centres unmarked) [Compound 49, 2-{[6-({5-chloro-2-[4-({2-[2-(2,6-dioxopiperidin-3-yl)-1-oxo-2,3-dihydro-1H-isoindol-5-yl]-2-azaspiro[3.5]nonan-7-yl}oxy)piperidin-1-yl]pyrimidin-4-yl}amino)-2-oxo-1-(propan-2-yl)-1,2-dihydroquinolin-3-yl]oxy}-N-methylacetamide] | < 10 | 50 to 70 | – | –
CNC(=O)COc1cc2cc(Nc3nc(N4CCC(C(C)(C)N5CCC6(CC5)CN(c5cccc7c5CN(C5CCC(=O)NC5=O)C7=O)C6)CC4)ncc3Cl)ccc2n(C(C)C)c1=O (centres unmarked) [Compound 59, 2-{[6-({5-chloro-2-[4-(2-{2-[2-(2,6-dioxopiperidin-3-yl)-1-oxo-2,3-dihydro-1H-isoindol-4-yl]-2,7-diazaspiro[3.5]nonan-7-yl}propan-2-yl)piperidin-1-yl]pyrimidin-4-yl}amino)-2-oxo-1-(propan-2-yl)-1,2-dihydroquinolin-3-yl]oxy}-N-methylacetamide] | < 10 | 50 to 70 | – | –
CNC(=O)COc1cc2cc(Nc3nc(N4CCC(O[C@H]5C[C@H](N6CCN(c7ccc8c(c7Cl)CN(C7CCC(=O)NC7=O)C8=O)[C@H](C)C6)C5)CC4)ncc3Cl)ccc2n(C(C)C)c1=O (stereo partly drawn) [Compound 202, 2-({6-[(5-chloro-2-{4-[(1r,3r)-3-[(3R)-4-[4-chloro-2-(2,6-dioxopiperidin-3-yl)-1-oxo-2,3-dihydro-1H-isoindol-5-yl]-3-methylpiperazin-1-yl]cyclobutoxy]piperidin-1-yl}pyrimidin-4-yl)amino]-2-oxo-1-(propan-2-yl)-1,2-dihydroquinolin-3-yl}oxy)-N-methylacetamide] | < 10 | ≥ 70 | – | –
CNC(=O)COc1cc2cc(Nc3nc(N4CCC(O[C@H]5C[C@H](N6CCC(O)(c7ccc8c(c7)C(=O)N(C7CCC(=O)NC7=O)C8=O)CC6)C5)CC4)ncc3Cl)ccc2n(C(C)C)c1=O (some centres unmarked) [Compound 275, 2-({6-[(5-chloro-2-{4-[(1r,3r)-3-{4-[2-(2,6-dioxopiperidin-3-yl)-1,3-dioxoisoindol-5-yl]-4-hydroxypiperidin-1-yl}cyclobutoxy]piperidin-1-yl}pyrimidin-4-yl)amino]-1-isopropyl-2-oxoquinolin-3-yl}oxy)-N-methylacetamide] | – | – | ≥ 70 | < 10
CNC(=O)COc1cc2cc(Nc3nc(N4CCC(O[C@H]5C[C@H](N6CCC(c7cc(C)c8c(c7F)CN(C7CCC(=O)NC7=O)C8=O)CC6)C5)CC4)ncc3Cl)ccc2n(C(C)C)c1=O (some centres unmarked) [Compound 208, 2-({6-[(5-chloro-2-{4-[(1r,3r)-3-{4-[2-(2,6-dioxopiperidin-3-yl)-4-fluoro-7-methyl-1-oxo-3H-isoindol-5-yl]piperidin-1-yl}cyclobutoxy]piperidin-1-yl}pyrimidin-4-yl)amino]-1-isopropyl-2-oxoquinolin-3-yl}oxy)-N-methylacetamide] | < 10 | ≥ 70 | – | –
CNC(=O)COc1cc2cc(Nc3nc(N4CCC(N5CCC6(C5)CN(C5CCN(c7ccc8c(c7)C(=O)N(C7CCC(=O)NC7=O)C8=O)CC5)C6)CC4)ncc3Cl)ccc2n(C(C)C)c1=O (centres unmarked) [Compound 224, 2-{[6-({5-chloro-2-[4-(2-{1-[2-(2,6-dioxopiperidin-3-yl)-1,3-dioxo-2,3-dihydro-1H-isoindol-5-yl]piperidin-4-yl}-2,6-diazaspiro[3.4]octan-6-yl)piperidin-1-yl]pyrimidin-4-yl}amino)-2-oxo-1-(propan-2-yl)-1,2-dihydroquinolin-3-yl]oxy}-N-methylacetamide] | – | – | ≥ 70 | 10 to 50
CNC(=O)COc1cc2cc(Nc3nc(N4CCC(O[C@H]5C[C@H](N6CCN(C7CN(c8ccc9c(c8F)CN(C8CCC(=O)NC8=O)C9=O)C7)CC6)C5)CC4)ncc3Cl)ccc2n(C(C)C)c1=O (some centres unmarked) [Compound 422, 2-({6-[(5-chloro-2-{4-[(1r,3r)-3-(4-{1-[2-(2,6-dioxopiperidin-3-yl)-4-fluoro-1-oxo-2,3-dihydro-1H-isoindol-5-yl]azetidin-3-yl}piperazin-1-yl)cyclobutoxy]piperidin-1-yl}pyrimidin-4-yl)amino]-2-oxo-1-(propan-2-yl)-1,2-dihydroquinolin-3-yl}oxy)-N-methylacetamide] | – | – | ≥ 70 | < 10
CNC(=O)COc1cc2cc(Nc3nc(N4CCC(O[C@H]5C[C@H](N6CCC(c7cc8c(c(OC)c7)C(=O)N(C7CCC(=O)NC7=O)C8)CC6)C5)CC4)ncc3Cl)ccc2n(C(C)C)c1=O (some centres unmarked) [Compound 103, 2-({6-[(5-chloro-2-{4-[(1r,3r)-3-{4-[2-(2,6-dioxopiperidin-3-yl)-7-methoxy-1-oxo-2,3-dihydro-1H-isoindol-5-yl]piperidin-1-yl}cyclobutoxy]piperidin-1-yl}pyrimidin-4-yl)amino]-2-oxo-1-(propan-2-yl)-1,2-dihydroquinolin-3-yl}oxy)-N-methylacetamide] | < 10 | 50 to 70 | – | –
CNC(=O)COc1cc2cc(Nc3nc(N4CCC(O[C@H]5C[C@H](N6CCC7(CC6)CN(c6ccc8c(c6F)CN(C6CCC(=O)NC6=O)C8=O)C7)C5)CC4)ncc3Cl)ccc2n(C(C)C)c1=O (some centres unmarked) [Compound 410, 2-({6-[(5-chloro-2-{4-[(1r,3r)-3-{2-[2-(2,6-dioxopiperidin-3-yl)-4-fluoro-1-oxo-2,3-dihydro-1H-isoindol-5-yl]-2,7-diazaspiro[3.5]nonan-7-yl}cyclobutoxy]piperidin-1-yl}pyrimidin-4-yl)amino]-2-oxo-1-(propan-2-yl)-1,2-dihydroquinolin-3-yl}oxy)-N-methylacetamide] | – | – | ≥ 70 | < 10
CNC(=O)COc1cc2cc(Nc3nc(N4CCC(O[C@H]5C[C@H](N6CC7(CCN(c8ccc9c(c8F)CN(C8CCC(=O)NC8=O)C9=O)C7)C6)C5)CC4)ncc3Cl)ccc2n(C(C)C)c1=O (some centres unmarked) [Compound 400, 2-({6-[(5-chloro-2-{4-[(1r,3r)-3-{6-[2-(2,6-dioxopiperidin-3-yl)-4-fluoro-1-oxo-2,3-dihydro-1H-isoindol-5-yl]-2,6-diazaspiro[3.4]octan-2-yl}cyclobutoxy]piperidin-1-yl}pyrimidin-4-yl)amino]-2-oxo-1-(propan-2-yl)-1,2-dihydroquinolin-3-yl}oxy)-N-methylacetamide] | – | – | ≥ 70 | < 10
CNC(=O)COc1cc2cc(Nc3nc(N4CCC(N5CCC6(CN(CC7CCN(c8ccc9c(c8)C(=O)N(C8CCC(=O)NC8=O)C9=O)CC7)C6)C5)CC4)ncc3Cl)ccc2n(C(C)C)c1=O (centres unmarked) [Compound 228, 2-({6-[(5-chloro-2-{4-[2-({1-[2-(2,6-dioxopiperidin-3-yl)-1,3-dioxo-2,3-dihydro-1H-isoindol-5-yl]piperidin-4-yl}methyl)-2,6-diazaspiro[3.4]octan-6-yl]piperidin-1-yl}pyrimidin-4-yl)amino]-2-oxo-1-(propan-2-yl)-1,2-dihydroquinolin-3-yl}oxy)-N-methylacetamide] | – | – | 50 to 70 | 10 to 50
